# Several values for one entry are separate records, joined by “and”; a condition that tells them apart may be missing. Equal values may be shown once. Entries after “also recorded” stand apart in the source; their conditions may differ.
# Legend:
# [1] = tested on: pediatric subjects with acute hypoxemic respiratory failure (AHRF); test: Pediatric AHRF study, nitric oxide 5 ppm versus placebo: efficacy and subject outcome; type: in vivo, human
# Protocol: This was a prospective, multicenter, randomized, double-blind, placebo-controlled, parallel-group study of the safety and efficacy of inhaled nitric oxide in pediatric subjects with acute hypoxemic respiratory failure (AHRF). The subjects were randomized to receive either 5 ppm inhaled nitric oxide or placebo.
# Nitric Oxide for inhalation at 5 ppm was administered continuously into the inspiratory limb of the ventilator circuit in mechanically ventilated subjects using a blinded version of the INOvent® delivery system.
# Subjects received 100% treatment gas (nitric oxide 5 ppm or placebo [nitrogen gas]) until Day 28 or extubation, whichever occurred first.
# Placebo consisting of 100% Grade 5 nitrogen gas was administered continuously into the inspiratory limb of the ventilator circuit in mechanically ventilated subjects using a blinded version of the INOvent® delivery system at a rate equivalent to a 5 ppm dose of nitric oxide.
# This was a prospective, multicenter, randomized, double-blind, placebo-controlled, Phase III study to assess the effects of nitric oxide for inhalation in the treatment of acute hypoxic respiratory failure (AHRF) in pediatric subjects. The study population consisted of male and female pediatric subjects, aged 44 weeks postconceptional age to 16 years age, who were admitted to the pediatric intensive care unit (PICU) and who required intubation because of AHRF. The inclusion/exclusion criteria are described in the Patients section below.
# (§1) Standardized ventilatory management and weaning procedures were used. Ventilatory management was used based on an “open lung approach” using positive end-expiratory pressure (PEEP) to increase lung volume and limiting tidal volumes to reduce plateau pressures. Subjects received nitric oxide for inhalation at 5 ppm or placebo (100% Grade 5 nitrogen gas) into the inspiratory limb of the ventilator circuit using a blinded version of the INOvent® delivery system. The subjects were treated until Day 28 or extubation, whichever occurred first. Subjects were assessed daily using a spontaneous breathing trial, according to the institution's standard of care. Arterial blood gases (ABG), ventilator settings, methemoglobin, oxygenation index, systolic blood pressure, diastolic blood pressure, Pediatric Risk of Mortality (PRISM) III score, and subject positioning (prone or supine) were performed/recorded at specified times during the study. Selected centers also performed plasma cytokine assays, bronchoalveolar lavage fluid (BALF) assays, and a 6-month follow-up assessment.
# Inclusion criteria for patients were as follows: • 1. 44 weeks post-conceptional age to 16 years of age • 2. Oxygenation Index (OI)≥12 cm H2O/mmHg (as determined by two separate measurements taken 30 minutes to 4 hours apart) • 3. Recent chest x-ray (within 24 hours) showing at least unilateral infiltrates • 4. Mechanically ventilated (oral or nasopharyngeal)<7 days
# Exclusion criteria for patients were as follows: • 1. Immunocompromised • 2. Received a bone marrow transplant • 3. Active oncological condition • 4. Persistent right to left intracardiac shunt • 5. Cardiovascular surgery within the last 14 days • 6. Status asthmaticus • 7. Decision by primary care physician not to provide full support (futility) • 8. Received treatment with nitric oxide for inhalation or other investigational medications with 24 hours prior to study initiation. • 9. Chronically ventilated • 10. Pregnant Study Design and Schedule of Assessments:
# Extubation was considered when: • i. Pressure support of <10 cm H2O • ii. FiO2<0.60 • iii. PEEP<6 cm H2O • iv. Nitric oxide has been discontinued for 30 minutes
# Extubation occurred within 12 hours of meeting the above criteria. If a patient met the above criteria but was not extubated within 12 hours, the reason (i.e. airway protection, surgery, secretions clearance, etc.) was documented.
# [2] = tested on: pediatric subjects with acute hypoxemic respiratory failure (AHRF); test: Pediatric AHRF study: percent methemoglobin levels; type: in vivo, human; settings: 5 ppm
# Protocol: as §1
# The following assessments were made at baseline: arterial blood gases, ventilator settings, methemoglobin, prone position, PRISM III score, oxygenation index, systolic and diastolic blood pressure, bronchoalveolar lavage fluid assay and plasma cytokine.
# The following assessments were made at 4 hours±1 hour after the start of therapy: arterial blood gases, ventilator settings and methemoglobin.
# The following assessments were made at 24 hours±2 hours after the start of therapy: arterial blood gases, ventilator settings, methemoglobin, systolic and diastolic blood pressure and plasma cytokine.
# Percent methemoglobin levels were obtained at baseline and at Hours 4 and 24. […] These levels were well below levels that would have necessitated discontinuation of treatment.
# [3] = 5 ppm, discharge evaluation, N 26
# [4] = 5 ppm, in words, approached statistical significance
smiles,measurement,setting,value
"[N]=O [Nitric Oxide, nitric oxide]",completed 28 days of the study or successfully extubated,[1]; 5 ppm,21 (80.8%) n (%)
same,"Days on supplemental O2, Median","[1]; 5 ppm, N 10",18.1 days
same,"Number of days on supplemental O2, Mean (SD)","[1]; 5 ppm, N 10",19.6 (13.4) ^ days and 19.6 (13.4) days
same,"Days originally intubated, Median","[1]; 5 ppm, N 20",13.7 days
same,"Number of days originally intubated, Mean (SD)","[1]; 5 ppm, N 20",13.6 (6.8) ^ days and 13.6 (6.8) days
same,"Days in PICU, Median","[1]; 5 ppm, N 22",17.3 days
same,"Number of days in PICU, Mean (SD)","[1]; 5 ppm, N 22",17.8 (8.3) ^ days and 17.8 (8.3) days
same,Clinical sepsis,[1]; [3],4 (15.4%) n (%)
same,Died (cause of death related to pulmonary condition),[1]; [3],0 (0) ^ n (%)
same,ECMO at any time during treatment,[1]; [3],0 (0) ^ n (%)
same,HFOV at any time during treatment,[1]; [3],11 (42.3%) n (%)
same,Intubated on Day 28,[1]; [3],2 (7.7%) n (%)
same,Pneumothorax,[1]; [3],3 (11.5%) n (%)
same,Receiving supplemental O2 on Day 28,[1]; [3],11 (42.3%) n (%)
same,Survival,[1]; [3],23 (88.5%) n (%)
same,VAP (ventilator-associated pneumonia),[1]; [3],5 (19.2%) n (%)
same,days in the PICU versus placebo,"[1]; 5 ppm, in words",lower
same,duration (mean number of days) of supplemental oxygen versus placebo,"[1]; 5 ppm, in words",higher
same,frequency of extracorporeal membrane oxygenation versus placebo,"[1]; 5 ppm, in words",lower
same,frequency of high frequency oscillatory ventilation versus placebo,"[1]; 5 ppm, in words",lower
same,frequency of pneumothorax versus placebo,"[1]; 5 ppm, in words",lower
same,frequency of ventilator-associated pneumonia at discharge versus placebo,"[1]; 5 ppm, in words",higher
same,mean duration (number of days) of intubation versus placebo,"[1]; 5 ppm, in words",lower
same,duration of mechanical ventilation (MV),[1]; [4],shortened
same,rate of survival,[1]; [4],improved
same,rate of ECMO free survival versus placebo,"[1]; 5 ppm, in words, listed as iNO",significantly greater; also recorded: significantly higher
same,Day 28 (completed 28 days),"[1]; 5 ppm, n = 26, subject outcome",1 (3.8%) n (%)
same,Death,"[1]; 5 ppm, n = 26, subject outcome",2 (7.7%) n (%)
same,Successful extubation,"[1]; 5 ppm, n = 26, subject outcome",20 (76.9%) n (%)
same,Total discontinued,"[1]; 5 ppm, n = 26, subject outcome",5 (19.2%) n (%)
same,rate of ECMO free survival,"[1]; 5 ppm, placebo 15 of 29, p<0.01",22 of 24
same,Survival at 28 days,"[1]; 5 ppm, placebo 21 of 29, p=0.07",22 of 24
same,survival rate,"[1]; 5 ppm, placebo 72.4%",88.5%
same,oxygenation index (OI),"[1]; 4 hours, 5 ppm, placebo 26.1+/−19.5, p=0.09",14.3+/−5.9
same,oxygenation index (OI),"[1]; 12 hours, 5 ppm, placebo 24.5+/−22.0, p=0.04",14.7+/−6.0
same,oxygenation index (OI),"[1]; 24 hours, 5 ppm, placebo 16.7+/−9.9, p=0.53",15.2+/−10.8
same,number of days that a child is ventilator-free at 28 days after the start of iNO therapy,[1]; in words,increased
same,"Methemoglobin level, Mean (SD)",[2]; 4 Hours,0.64 (0.33) %
same,"Methemoglobin level, Median",[2]; 4 Hours,0.8%
same,"Methemoglobin level, Mean (SD)",[2]; 24 Hours,0.52 (0.37) %
same,"Methemoglobin level, Median",[2]; 24 Hours,0.5%
same,"Methemoglobin level, Mean (SD)",[2]; Baseline,0.56 (0.35) %
same,"Methemoglobin level, Median",[2]; Baseline,0.5%
same,Percent methemoglobin levels versus placebo group,"[2]; at most time points, in words",equal to or less than
same,percent methemoglobin levels,"[2]; baseline, Hours 4 and 24, in words",within normal limits

# — patent publication US10201564B2, “Methods of using inhaled nitric oxide gas for treatment of acute respiratory distress syndrome in children” (Mallinckrodt Hospital Products IP Limited, priority 2014, dated 2019)
